Results on 29 molecules are retold here after PubChem BioAssay (NCI).

Where “and” joins values, the source holds several entries; their conditions need not be identical. Equal entries are not always repeated.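 Growth conditions: 96-well plates. Treatment: test compound, 48 hours, 5 concentrations. Analysis: linear interpolation between bracketing concentrations; unreached endpoints set to highest concentration. The concentration for 50% growth inhibition is given as GI50. TGI is the concentration that stops growth completely.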

Test in all cases: NCI-60 cell line screen, 48 h
The test system of experiment [1] is NCI-H522 lung.
The subject of experiment [2] is HOP-62 NSCLC.
Experiment [3] relates to HCT-116 colon.
In experiment [4] the test system is 786-0 renal.
The test system of experiment [5] is NCI-H23 lung.
The test system of experiment [6] is OVCAR-4 ovarian.
The test system of experiment [7] is COLO 205 colon.
Experiment [8] has as its system LOX IMVI melanoma.
Experiment [9] concerns DU-145 prostate.

For `Cn1c(N)nc(=O)c2c1N(C1OC(CO)C(O)C1O)CN2Cc1ccccc1` (stereo not given), the TGI in experiment [1], in [2], in experiment [3], in [4], in experiment [5] and in experiment [6] was above 100 µM throughout. In experiment [7], this molecule yielded a TGI above 100 µM.
On to `NC1=NN(c2ccccc2)C(=O)C1C(=O)C(=O)Nc1nccs1` (stereo not given), for which the TGI in experiment [1], in [2], in [3], in experiment [8], in experiment [4] and in experiment [5] was above 100 µM each time. Besides, the TGI in experiment [6] and in [7] was above 100 µM each time.
As for `CC(=O)O[C@@]1(C)[C@@H](C)C(=O)O[C@@H]2CCN3CC=C(COC(=O)[C@]1(C)O)[C@H]23`, the TGI in [1], in [2], in [3], in experiment [4], in [5] and in [6] was above 100 µM in each case. Moreover, in experiment [7], the TGI is above 100 µM.
As to `COc1ccc2c3c(c(C(=O)c4ccccc4)oc13)CCC2`, the TGI in experiment [2] was above 100 µM; in experiment [3], above 100 µM; in experiment [8], above 100 µM; in experiment [4] it was above 100 µM; in experiment [5], 41.4 µM; in [6], above 100 µM. Besides, the TGI in experiment [7] was above 100 µM.
Turning to `C/C=C(\CCOS(=O)(=O)c1ccc(C)cc1)[Si](C)(C)C`, the TGI in [1], in experiment [3], in experiment [8], in experiment [4], in [5] and in experiment [7] was above 100 µM in each case.
Regarding `Nc1n[n+](-c2ccccc2)no1`, the TGI in [1], in [2], in experiment [3], in [8], in [4] and in experiment [5] was above 100 µM each time. Besides, the TGI in experiment [6] and in experiment [7] was above 100 µM each time.
In the case of `CCCN(CCC)c1ccc(/C=N/NC(=O)c2cccnc2)c(OC)c1`, the GI50 was 20.3 µM in [1]; 31.3 µM in experiment [2]; 22.7 µM in [3]; 27.8 µM in [9]; 23.6 µM in experiment [8]; 32.7 µM in experiment [4]. The GI50 in experiment [5] was 26.1 µM; in experiment [6] it was 23.5 µM; in experiment [7], 20.1 µM. For the same molecule, the TGI is 56.9 µM in experiment [1]; above 100 µM in experiment [2]; above 100 µM in [3]; 94.8 µM in [9]; above 100 µM in [8]; above 100 µM in experiment [4]. For the same molecule, the figures for the TGI in experiment [5], in [6] and in [7] were above 100 µM, 82.8 µM and 46.3 µM, respectively.
As to `Cc1[nH]c(=O)[nH]c1C(=O)c1ccc(-n2ccnc2)cc1`, the TGI in experiment [1], in experiment [2], in experiment [3], in [8], in [4] and in experiment [6] was above 100 µM each time.
Turning to `CC1=C(O)/C(=C/C(C)CCC/C(C)=C/C=C/C(C)CCCc2ccoc2)OC1=O` (stereo not given), the TGI in experiment [1] is above 100 µM; in experiment [2], 59.6 µM; in experiment [8], above 100 µM; in experiment [4], 84.9 µM; in [5], 59.3 µM; in experiment [6] it was 85.3 µM. This molecule yielded a TGI in experiment [7] above 100 µM.
Consider `COC(=O)C(C(=O)C(=O)Nc1cccc([N+](=O)[O-])c1)c1nc2ccc([N+](=O)[O-])cc2[nH]c1=O` (stereo not given), for which the TGI in [1], in [2], in experiment [3], in [8], in [4] and in [5] was above 100 µM throughout. The TGI in experiment [6] and in experiment [7] was above 100 µM in each case.
On to `N#Cc1c(N)nc(N2CCOCC2)c(C#N)c1-c1ccccn1`, for which the GI50 in [1], in experiment [2], in experiment [3], in [9], in [8] and in [4] was above 100 µM throughout. Further, the GI50 in experiment [5], in experiment [6] and in experiment [7] was above 100 µM each time. Further, the TGI in experiment [1], in experiment [2], in experiment [3], in experiment [9], in experiment [8] and in experiment [4] was above 100 µM throughout. Further, the TGI in [5], in [6] and in experiment [7] was above 100 µM each time.
In the case of `O=C(O/N=C1/CCC/C1=C\c1ccccc1)c1ccc(Cl)c(Cl)c1`, the TGI in experiment [1], in [2], in [3], in [8], in experiment [4] and in experiment [5] was above 100 µM each time. Besides, the TGI in [6] and in experiment [7] was above 100 µM in each case.
On to `CC(=O)[CH-]C(=O)c1ccccc1.CC(=O)[CH-]C(=O)c1ccccc1.Cc1cc([O-])ccc1Cl.Cc1cc([O-])ccc1Cl.[Ti+4]`, for which the GI50 in experiment [1] was 15.6 µM; in [2] it was 19.5 µM; in [3] it was 35 µM; in experiment [8], 12.6 µM; in experiment [4], 27.7 µM; in experiment [5] it was 35.6 µM. The GI50 in experiment [6] is 40.8 µM; in experiment [7], 19.6 µM. In addition, the TGI in experiment [1] was 34.7 µM; in [2], 70.9 µM; in experiment [3] it was above 100 µM; in experiment [8], 31.8 µM; in experiment [4], above 100 µM; in [5], above 100 µM. For the same molecule, the TGI was above 100 µM in experiment [6] and 38.1 µM in [7].
With `CCCCCCCCCC(=O)OCC1OC(n2cc(F)c(=O)[nH]c2=O)C(NC(=O)OCc2ccccc2)C(OC(=O)CCCCCCCCC)C1O` (stereo not given), the TGI in [1] was 72.2 µM; in experiment [2], above 100 µM; in experiment [3] it was 28.1 µM; in experiment [8], 30.2 µM; in experiment [4], 36.1 µM; in [5], 62 µM. Moreover, the figures for the TGI in experiment [6] and in [7] were 40.6 µM and above 100 µM, respectively.
In the case of `O=C1C2C(C(=O)N1c1ccccc1)C1([N+](=O)[O-])C=C3c4ccccc4N(C(=O)c4ccccc4)C32C2C(=O)N(c3ccccc3)C(=O)C21` (stereo not given), the TGI in experiment [1], in [2], in experiment [3], in experiment [8], in experiment [4] and in experiment [5] was above 100 µM throughout. In addition, the TGI in [7] is above 100 µM.
Regarding `Nc1ccc(-c2cccs2)cc1NC(=O)c1ccc(CCCC(=O)Nc2ccc(C3CC3N)cc2)cc1` (stereo not given), the GI50 was 1.61 µM in [4], 1.52 µM in experiment [6] and 2.44 µM in [7]. For the same molecule, the TGI in experiment [4] is 3.37 µM; in experiment [6] it was 3.3 µM; in [7], above 100 µM.
With `COC(=O)C12OCC34C(CC5C(C)C6=CC(=O)OC6=CC5(C)C3C(O)C1O)OC(=O)C(O)C24` (stereo not given), the GI50 in experiment [1] is 0.0501 µM; in experiment [2] it was 0.177 µM; in [3] it was 0.224 µM; in [8], 0.0542 µM; in experiment [4], 0.31 µM; in experiment [5] it was 0.156 µM. Besides, the GI50 in experiment [6] was 0.155 µM; in [7] it was 0.252 µM. Moreover, the TGI in [2] is 0.704 µM and 3.54 µM; in [3] it was 6.31 µM; in experiment [8], 0.288 µM and 1.42 µM; in [4] it was 5.66 µM; in [5], 0.493 µM and 1.16 µM.
As to `COc1ccc(/C=C2\CCC(CCN(C)C)(C3=CCCC3)C2=O)cc1Br` (stereo not given), the TGI came to 3.98 µM in experiment [1]; 30.9 µM in [2]; 17.1 µM in [3]; 15.4 µM in experiment [8]; 14.3 µM in experiment [4]; 29 µM in experiment [5]. Further, the figures for the TGI in [6] and in experiment [7] were 14.5 µM and 3.01 µM, respectively.
Consider `O=C(N/N=C1\C(=O)N(c2nccs2)C(=O)C(=O)C1c1nc2ccccc2s1)c1ccccc1O` (stereo not given), for which the TGI in [1] was 96.9 µM; in experiment [2], 90.4 µM; in [3], above 100 µM; in experiment [8], above 100 µM; in experiment [4], above 100 µM; in experiment [5] it was above 100 µM. Besides, the TGI in experiment [6] and in [7] was above 100 µM each time.
For the molecule `CCc1cc(CCC(=O)Nc2ccccc2[N+](=O)[O-])[nH]c(=S)n1`, the TGI in [2], in experiment [3], in experiment [8], in experiment [4], in experiment [5] and in experiment [7] was above 100 µM in each case.
With `CN(C)CCNC(=O)Cn1cnc2cccc([N+](=O)[O-])c2c1=O`, the TGI in [1], in experiment [2], in experiment [3], in experiment [9], in experiment [8] and in experiment [4] was above 100 µM throughout. Moreover, the TGI in experiment [5], in experiment [6] and in [7] was above 100 µM each time.
As to `CCOC(=O)C(CC/C=C\c1ccccc1)N1CCC[C@H]1C(=O)OC` (stereo not given in full), the TGI in experiment [1], in [2], in experiment [3], in experiment [8], in experiment [4] and in experiment [5] was above 100 µM throughout. The TGI in experiment [6] and in experiment [7] was above 100 µM throughout.
With `CCOC(=O)c1cnc2sc3ccc4ccccc4c3n2c1=O`, the TGI in [2], in experiment [3], in experiment [8], in [4], in [5] and in experiment [6] was above 100 µM in each case. Further, the TGI in experiment [7] is above 100 µM.
For the molecule `O=C(CCn1[nH]c(=O)c(Cl)c(Cl)c1=O)NNC(=O)C[n+]1ccccc1`, the TGI in experiment [1], in experiment [2], in experiment [8], in [4], in [5] and in [6] was above 100 µM each time. In addition, the TGI in experiment [7] was above 100 µM.
For `Cc1cccc2c1CCC21OC(=O)c2c1ccc1ccccc21` (stereo not given), the TGI is above 100 µM in [1]; above 100 µM in experiment [2]; above 100 µM in [3]; above 100 µM in experiment [8]; above 100 µM in experiment [4]; 98.7 µM in experiment [5]. The TGI in experiment [6] and in [7] was above 100 µM throughout.
Regarding `O=C(CC(=O)c1cccc2ccccc12)C(=O)NC1C2CC3CC(C2)CC1C3` (stereo not given), the TGI in [1], in [2], in experiment [3], in [8], in experiment [4] and in [5] was above 100 µM in each case. Also, the TGI in experiment [6] and in experiment [7] was above 100 µM each time.
With `CSc1snc2sc3c(Cl)nnnc3c12`, the TGI in experiment [2] amounted to 31.9 µM; in experiment [3], 30.9 µM; in experiment [8], 11.2 µM; in [4], 29.7 µM; in experiment [5] it was 36 µM; in [6], 29.5 µM. The molecule also displayed a TGI in experiment [7] of 24 µM.
`Cc1cccc(C(C)(C)C)c1NC(=O)CCc1nc(=S)[nH][nH]1`: the TGI in experiment [1], in [2], in experiment [3], in experiment [8], in experiment [4] and in experiment [5] was above 100 µM in each case. Further, the TGI in experiment [6] and in [7] was above 100 µM in each case.
Take `COc1ccc2oc(C(=O)O)c3c2c1CCC3CCC(=O)O` (stereo not given): the TGI in [1] is above 100 µM; in experiment [2], above 1 µM; in experiment [3] it was above 100 µM; in experiment [8], above 100 µM; in [4] it was above 100 µM; in [5], above 100 µM. Moreover, the TGI in experiment [6] and in [7] was above 100 µM in each case.
